Source: PubChem BioAssay (NCI)
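Exposure lasted 48 hours, with cells grown in 96-well plates and compounds tested at five concentrations. The concentration for 50% growth inhibition is given as GI50. TGI: total growth inhibition.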

What was measured:
Experiment in all cases: NCI tumour cell line growth inhibition, 48 h
DLD-1 colon = tested on: DLD-1 colon
DMS 114 small cell lung = tested on: DMS 114 small cell lung
DMS 273 small cell lung = tested on: DMS 273 small cell lung
XF 498 CNS = tested on: XF 498 CNS
HOP-18 NSCLC = tested on: HOP-18 NSCLC
BT-549 breast = tested on: BT-549 breast
MDA-MB-231 breast = tested on: MDA-MB-231 breast
MDA-MB-435 = tested on: MDA-MB-435
MDA-N = tested on: MDA-N
PC-3 prostate = tested on: PC-3 prostate
HS 578T breast = tested on: HS 578T breast
MCF7 breast = tested on: MCF7 breast
NCI/ADR-RES ovarian = tested on: NCI/ADR-RES ovarian
P388 leukemia = tested on: P388 leukemia

Compound	TGI (DLD-1 colon) [µM]	TGI (DMS 114 small cell lung) [µM]	TGI (DMS 273 small cell lung) [µM]	TGI (XF 498 CNS) [µM]	TGI (MDA-MB-231 breast) [µM]	TGI (MDA-MB-435) [µM]	TGI (PC-3 prostate) [µM]	TGI (HS 578T breast) [µM]	TGI (MCF7 breast) [µM]	TGI (NCI/ADR-RES ovarian) [µM]	further results
CON(C)C(=O)C(Cc1ccccc1)NC(=O)OCc1ccccc1 (stereo not given)	> 100	> 100	> 100	> 100							
O=C(CC1Sc2ccccc2NC1=O)Nc1ccccc1[N+](=O)[O-] (stereo not given)	> 100		> 100	> 100							TGI (HOP-18 NSCLC): > 100 µM
CO[C@](C(=O)OC[C@H]1[C@@H](COC(C)=O)[C@@H]2O[C@H]1c1cc3c(cc12)OCO3)(c1ccccc1)C(F)(F)F					> 100	> 100	> 100				TGI (BT-549 breast): > 100 µM; TGI (MDA-N): > 100 µM
Oc1ccc(NCn2c(=S)sc3ccccc32)cc1					> 100	> 100	> 100	> 100	> 100	> 100	TGI (BT-549 breast): > 100 µM
CCn1cnc2c(=S)nc(N)[nH]c21	> 100	> 100	> 100								
CCCCCCOc1ccc(/C=N/Nc2cc(C)nc3ccc(Cl)cc23)cc1					3.24	3.15	3.21		3.2	3.7	GI50 (MCF7 breast): 1470 nM; GI50 (MDA-MB-231 breast): 1670 nM; GI50 (MDA-MB-435): 1710 nM; GI50 (NCI/ADR-RES ovarian): 1.9 µM; GI50 (PC-3 prostate): 1570 nM
CCOC(=O)c1csc(NC(=O)CN2CCCC2)n1					> 100	> 100	> 100	> 100	> 100	> 100	TGI (MDA-N): > 100 µM
CC1NC(=O)C(C)C(c2ccccc2)N(N=O)C1c1ccccc1 (stereo not given)	> 100	> 100	> 100	> 100					> 100	> 100	TGI (HOP-18 NSCLC): > 100 µM; TGI (P388 leukemia): > 89.2 µM
COc1cc(/C=C2\CN(S(=O)(=O)c3ccc(C)cc3)C/C(=C\c3cc(CN4CCCC4)c(O)c(OC)c3)C2=O)cc(CN2CCCC2)c1O					3.53	2.97	3.67	7.72	3.93	> 100	GI50 (HS 578T breast): 2730 nM; GI50 (MCF7 breast): 967 nM; GI50 (MDA-MB-231 breast): 1800 nM; GI50 (MDA-MB-435): 1530 nM; GI50 (NCI/ADR-RES ovarian): 12 µM; GI50 (PC-3 prostate): 1560 nM
